Read-outs that look alike come from different tables or passages of the source. Values belong to the molecule of their own block, whether it stands above or below them.
Assays:
[1] = tested on: Z-138 non-Hodgkin's lymphoma cells; test: In vitro anti-proliferation assay of Z-138 cells (CellTiter-Glo, 6 days); type: cell-based, human; details: read-out: IC50 (nM), in vitro anti-proliferative activity on Z-138 tumor cells
Experimental: The plate was incubated at 37° C., CO2 and 100% relative humidity for 6 days. Samples were processed using Promega CellTiter-Glo Luminescent Cell Viability Assay Kit (Promega-G7571) standard method, and the luminescent signal was detected on a TECAN Spark®10M plate reader. Raw data were used to calculate the inhibition rate of the test compounds using the following equation: […]
(§1) The inhibition rates were imported into Excel separately to calculate the inhibition rates of compounds at different concentrations, and then XLfit software was used to plot inhibition curves and calculate relevant parameters, including minimum inhibition rate, maximum inhibition rate and IC50.

in vivo = details: for AUC / clearance / half-life / bioavailability: male, CD-1, mouse, in vivo; for Clearance rate CL / Concentration integral AUC / Half-life T1/2 / Bioavailability F: CD-1 mice
Experimental: Experimental objective: To study the pharmacokinetic parameters of the compounds in CD-1 mice
Animal experimental design: Male CD-1 mice (28.08 to 29.01 g, 6 to 7 weeks old), purchased from Shanghai Family Planning Research Institute, n=2/group, 4 mice in total; blood collection time points (h): 0.083 (intravenous injection only), 0.25 (intragastric administration only), 0.5, 1, 2, 4, 8, 10 and 24; compound dose by tail vein injection: 1 mg/kg; single dose by intragastric administration: 5 mg/kg; intravenous and intragastric administration vehicles: 20% N,N-dimethylacetamide aqueous solution, 20% hydroxypropyl-β-cyclodextrin aqueous solution, 5% DMSO/50% PEG400/45% water for injection or 10% Solutol/30% PEG400/60% water for injection. All animals had free access to water during the experiment, fasted overnight before administration, and resumed food supply 4 hours after administration. The entire animal experiment complied with the Institutional Animal Care and Use Committee (IACUC) animal welfare.
Sample collection and storage: After administration, approximately 0.03 mL of blood was collected from the saphenous vein of the mouse at each time point into a pre-frozen commercial EDTA-K2 tube, and placed on wet ice until centrifugation. Blood samples were centrifuged at 4° C., 3,200 g for 10 min. Plasma was collected separately, transferred to a pre-labeled 96-well plate, fast frozen on dry ice, and stored at −70±10° C. until LC-MS/MS analysis.
Pre-treatment of plasma samples: 3 μL of unknown, standard curve, QC, diluted QC and single and double blank samples were taken and placed in 1.5 mL tubes, and 60 μL of internal standard solution (internal standard: Labetalol 100 ng/mL acetonitrile solution, double blank with the same volume of pure acetonitrile) was added. The samples were vortexed for at least 15 seconds, and centrifuged at 4° C., 12,000 g for 15 min. 50 μL of the supernatant was taken and placed on a clean 96-well plate, and 200 μL of 70% acetonitrile was added. The plate was vortex at 800 rpm for 10 min, and centrifuged at 4° C., 3,220 g for 5 min. 2.0 μL of the supernatant was taken for LC-MS/MS analysis. 10-fold sample dilution procedure: 2 μL of the sample was added to 18 μL of blank matrix; 2-fold sample dilution procedure: 2 μL of the sample was added to 2 μL of blank matrix. Plasma was processed in the same manner as undiluted samples. The linear range was 4.00 to 6000 nM. Plasma concentrations would be analyzed with Triple Quad 6500 Plus, and pharmacokinetic parameters would be calculated with Phoenix WinNonlin 6.3.

[2] = tested on: MDA-MB-468 human breast cancer cells; test: Anti-proliferative activity on MDA-MB-468 cells (CellTiter-Glo, 7 days); type: cell-based; details: read-out: IC50 (nM), in vitro anti-proliferative activity on MDA-MB-468 tumor cells
Experimental: CellTiter-Glo (chemiluminescent cell viability detection reagent, purchased from Promega).
MDA-MB-468 cells were planted in a white 384-well plate with 40 μL of cell suspension per well, which contained 1000 MDA-MB-468 cells. The cell plate was cultured in a CO2 incubator overnight. […] 78 μL of culture medium was added to a middle plate, and then 2 μL of gradient diluted compound per well was transferred to the middle plate according to the corresponding position. After being thoroughly mixed, 10 μL per well was transferred to the cell plate. […] The cell plate was cultured in a CO2 incubator for 7 days. Another cell plate was prepared, and the signal value was read on the day of administration as the maximum value (Max value in the equation below) to participate in data analysis. 10 μL of chemiluminescent cell viability detection reagent per well was added to the cell plate, and the plate was incubated at room temperature for 10 min to stabilize the luminescent signal. A multi-label analyzer was used for reading. After the incubation of the cell plate with the compound was completed, 10 μL of chemiluminescent cell viability detection reagent per well was added to the cell plate, and the plate was incubated at room temperature for 10 min to stabilize the luminescent signal. A multi-label analyzer was used for reading.

PRMT5 enzyme = PRMT5 enzyme (Homo sapiens (Human), UniProt O14744); test: PRMT5 enzyme inhibitory activity assay (LANCE Ultra TR-FRET); type: biochemical
Experimental: Experimental objective: To test the inhibitory effect of compounds on PRMT5 enzyme activity
Experimental materials: PRMT5 enzyme
The plate was incubated at 25° C. for 30 min, then added with substrate, and reacted at 25° C. for 90 min. After 90 min, the detection reagent was added to the 384-well plate using PerkinElmer LANCE Ultra TR-FRET standard method to combine with the enzyme-substrate reaction product. […] Raw data were used to calculate the inhibition rate of the test compounds using the following equation: […]
as §1

[3] = injection administration (1 mg/kg)

Chain of PRMT5 enzyme (O14744 whole entry): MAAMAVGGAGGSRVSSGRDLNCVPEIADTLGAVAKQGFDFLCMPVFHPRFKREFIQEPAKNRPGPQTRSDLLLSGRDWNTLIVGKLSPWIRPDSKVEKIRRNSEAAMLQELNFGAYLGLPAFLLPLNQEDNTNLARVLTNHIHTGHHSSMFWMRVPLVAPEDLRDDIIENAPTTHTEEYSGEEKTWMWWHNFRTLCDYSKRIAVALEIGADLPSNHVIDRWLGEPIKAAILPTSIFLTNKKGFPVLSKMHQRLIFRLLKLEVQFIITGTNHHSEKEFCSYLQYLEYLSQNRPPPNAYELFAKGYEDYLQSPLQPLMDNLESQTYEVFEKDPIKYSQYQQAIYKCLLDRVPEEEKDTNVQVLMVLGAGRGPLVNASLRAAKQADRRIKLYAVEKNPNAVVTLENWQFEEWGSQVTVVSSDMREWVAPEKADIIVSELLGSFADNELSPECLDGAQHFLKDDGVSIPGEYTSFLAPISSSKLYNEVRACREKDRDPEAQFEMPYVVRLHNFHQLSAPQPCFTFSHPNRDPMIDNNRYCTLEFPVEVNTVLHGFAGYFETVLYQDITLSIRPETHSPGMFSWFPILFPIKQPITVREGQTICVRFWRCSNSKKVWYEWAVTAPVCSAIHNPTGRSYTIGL
Chain of PRMT5 enzyme (Q9BQA1 whole entry partner): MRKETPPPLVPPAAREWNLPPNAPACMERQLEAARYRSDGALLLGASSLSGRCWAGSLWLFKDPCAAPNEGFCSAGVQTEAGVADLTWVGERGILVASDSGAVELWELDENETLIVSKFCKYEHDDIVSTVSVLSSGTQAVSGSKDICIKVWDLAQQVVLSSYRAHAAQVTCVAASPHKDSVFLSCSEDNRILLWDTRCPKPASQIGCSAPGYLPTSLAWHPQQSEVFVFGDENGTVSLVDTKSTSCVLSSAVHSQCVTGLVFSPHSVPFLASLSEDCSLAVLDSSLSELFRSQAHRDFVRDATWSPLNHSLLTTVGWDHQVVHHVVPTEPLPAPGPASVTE

Structure (SMILES): CS(=O)(=O)N1CC2(C1)Oc1ccc(C(=O)NC[C@H](O)CN3CCc4ccccc4C3)cc1NC2=O [Compound 14]
IC50 ([1]; Homo sapiens, Z-138, 144 h): 14 nM

Structure (SMILES): O=C(NC[C@H](O)CN1CCc2ccccc2C1)c1cnc2c(c1)NC(=O)C1(CC1)O2 [Compound 8]
IC50 ([1]; Homo sapiens, Z-138, 144 h): 10 nM
AUC (in vivo; iv, 1 mg/kg): 0.875 µM·h
clearance (in vivo; iv, 1 mg/kg): 53.3 mL/min/kg
half-life (in vivo; iv, 1 mg/kg): 54.6 min
AUC (in vivo; po, 5 mg/kg): 1.03 µM·h
bioavailability (in vivo; po, 5 mg/kg): 24.5%
IC50 ([2]; Homo sapiens, 168 h): 12 nM
IC50 (PRMT5 enzyme): 15 nM

Structure (SMILES): O=C(NC[C@H](O)CN1CCc2ccccc2C1)c1ccc2c(c1)NC(=O)C1(CS(=O)(=O)C1)O2 [Compound 37]
IC50 [1]: 8 nM
IC50 (PRMT5 enzyme): 8 nM

Structure (SMILES): O=C(NC[C@H](O)CN1CCc2ccccc2C1)c1ccc2c(c1)NC(=O)[C@]1(CCOC1)O2 [Compound 36]
IC50 [1]: 7 nM
Clearance rate CL (in vivo; [3]): 66.3 mL/min/kg
Concentration integral AUC (in vivo; [3]): 0.576 µM·h
Half-life T1/2 (in vivo; [3]): 13.2 min
Bioavailability F (in vivo; oral administration (5 mg/kg)): 37.9%
Concentration integral AUC (in vivo; oral administration (5 mg/kg)): 1.092 µM·h
IC50 (PRMT5 enzyme): 7 nM

Structure (SMILES): O=C(NC[C@H](O)CN1CCc2ccccc2C1)c1ccc2c(c1)NC(=O)[C@H]1C[C@@H]21 [Compound 49b]
IC50 [1]: 13.1 nM
IC50 [2]: 4.2 nM
IC50 (PRMT5 enzyme): 26.2 nM

Structure (SMILES): O=C(NC[C@H](O)CN1CCc2ccccc2C1)c1cnc2c(c1)NC(=O)C21CC1 [Compound 42]
IC50 [1]: 53 nM

Structure (SMILES): O=C(NC[C@H](O)CN1CCc2ccccc2C1)c1cnc2c(c1)NC(=O)C1(CCC1)O2 [Compound 6]
IC50 [1]: 6 nM
Clearance rate CL (in vivo; [3]): 42.1 mL/min/kg
Concentration integral AUC (in vivo; [3]): 0.944 µM·h
Half-life T1/2 (in vivo; [3]): 14.4 min
Bioavailability F (in vivo; oral administration (5 mg/kg)): 16.4%
Concentration integral AUC (in vivo; oral administration (5 mg/kg)): 0.773 µM·h

Structure (SMILES): O=C(NC[C@H](O)CN1CCc2ccccc2C1)c1cc2c(nn1)OC1(CC1)C(=O)N2 [Compound 16]
IC50 [1]: 90 nM

Next, values leading:

IC50 ([1]; Homo sapiens, Z-138, 144 h): 18 nM
Structure (SMILES): O=C(NC[C@H](O)CN1CCc2ccccc2C1)c1ccc2c(c1)NC(=O)C1(CSC1)O2 [Compound 38]

IC50 ([1]; Homo sapiens, Z-138, 144 h): 10 nM
Structure (SMILES): O=C(NC[C@H](O)CN1CCc2ccccc2C1)c1ccc2c(c1)NC(=O)C1(CC(F)(F)C1)O2 [Compound 28]

IC50 ([1]; Homo sapiens, Z-138, 144 h): 47 nM
Structure (SMILES): COCCN1CC2(C1)Oc1ccc(C(=O)NC[C@H](O)CN3CCc4ccccc4C3)cc1NC2=O [Compound 13]

IC50 ([1]; Homo sapiens, Z-138, 144 h): 22 nM
Structure (SMILES): CC(C)OC1CC2(C1)Oc1ccc(C(=O)NC[C@H](O)CN3CCc4ccccc4C3)cc1NC2=O (some centres unmarked) [Compound 26]

IC50 ([1]; Homo sapiens, Z-138, 144 h): 88 nM
Structure (SMILES): CC(=O)N1CC2(C1)Oc1ccc(C(=O)NC[C@H](O)CN3CCc4ccccc4C3)cc1NC2=O [Compound 11]

IC50 ([1]; Homo sapiens, Z-138, 144 h): 100 nM
AUC (in vivo; 1 mg/kg): 0.336 µM·h
clearance (in vivo; 1 mg/kg): 107 mL/min/kg
half-life (in vivo; 1 mg/kg): 129 min
AUC (in vivo; po, 5 mg/kg): 0.168 µM·h
bioavailability (in vivo; po, 5 mg/kg): 10%
IC50 (PRMT5 enzyme): 36 nM
Structure (SMILES): CC(C)N1CC2(C1)Oc1ccc(C(=O)NC[C@H](O)CN3CCc4ccccc4C3)cc1NC2=O [Compound 9]

Source: patent publication US20230365558A1, “TETRAHYDROISOQUINOLINE DERIVATIVE AND USE THEREOF” (MEDSHINE DISCOVERY INC., priority 2020, published 2023)
